The record followed here is ChEMBL document CHEMBL3351673, “Synthesis and evaluation of new indole-based chalcones as potential antiinflammatory agents” (Eur J Med Chem, 2015).

≈ marks a conversion by molar mass, not a printed value.

The nature of test [1]: Cytotoxicity against mouse NIH/3T3 cells incubated for 24 hrs by CCK8 assay. The settings on record: NIH3T3, 24 h. The test is classed as cell-based. Background: Formazan colour is commonly taken as a measure of viable cells.
Test [2] has as its system Rattus norvegicus. Nature of the test: Antiinflammatory activity in Sprague-Dawley rat model of LPS-induced sepsis assessed as ALT level at 5 mg/kg/day dosed through gastric intubation for 6 days (reference value: 70.3 +/- 7.9 U/L). The test is classed as functional.
The subject of test [3] is Rattus norvegicus. The experiment in a line: Antiinflammatory activity in Sprague-Dawley rat model of LPS-induced sepsis assessed as AST level at 5 mg/kg/day dosed through gastric intubation for 6 days (reference value: 148.9 +/- 41.3 U/L). The test is classed as functional.
The subject of test [4] is Rattus norvegicus. The experiment in a line: Antiinflammatory activity in Sprague-Dawley rat model of LPS-induced sepsis assessed as hsCRP level at 5 mg/kg/day dosed through gastric intubation for 6 days (reference value: 1.9 +/- 0.3 mg/L). The class given is functional.
Test [5] has as its system Rattus norvegicus. Nature of the test: Antiinflammatory activity in Sprague-Dawley rat model of LPS-induced sepsis assessed as MPO level at 5 mg/kg/day dosed through gastric intubation for 6 days (reference value: 4.2 +/- 1.8 […]). The class given is functional.
Test [6] deals with Rattus norvegicus. Nature of the test: Antiinflammatory activity in Sprague-Dawley rat model of LPS-induced sepsis assessed as nitric oxide level at 5 mg/kg/day dosed through gastric intubation for 6 days by cadmium reduction method (reference value: 28.6 +/- 2.4 umol/L). The class given is functional.
Test [7] relates to Rattus norvegicus. The experiment in a line: Antiinflammatory activity in Sprague-Dawley rat model of LPS-induced sepsis assessed as serum MDA level at 5 mg/kg/day dosed through gastric intubation for 6 days (reference value: 4.7 +/- 2.8 mg/L). The test is classed as functional.
The target in test [8] is T1, Prostaglandin G/H synthase 1 (Ovis aries, UniProt P05979).
T1 sequence (P05979 whole entry): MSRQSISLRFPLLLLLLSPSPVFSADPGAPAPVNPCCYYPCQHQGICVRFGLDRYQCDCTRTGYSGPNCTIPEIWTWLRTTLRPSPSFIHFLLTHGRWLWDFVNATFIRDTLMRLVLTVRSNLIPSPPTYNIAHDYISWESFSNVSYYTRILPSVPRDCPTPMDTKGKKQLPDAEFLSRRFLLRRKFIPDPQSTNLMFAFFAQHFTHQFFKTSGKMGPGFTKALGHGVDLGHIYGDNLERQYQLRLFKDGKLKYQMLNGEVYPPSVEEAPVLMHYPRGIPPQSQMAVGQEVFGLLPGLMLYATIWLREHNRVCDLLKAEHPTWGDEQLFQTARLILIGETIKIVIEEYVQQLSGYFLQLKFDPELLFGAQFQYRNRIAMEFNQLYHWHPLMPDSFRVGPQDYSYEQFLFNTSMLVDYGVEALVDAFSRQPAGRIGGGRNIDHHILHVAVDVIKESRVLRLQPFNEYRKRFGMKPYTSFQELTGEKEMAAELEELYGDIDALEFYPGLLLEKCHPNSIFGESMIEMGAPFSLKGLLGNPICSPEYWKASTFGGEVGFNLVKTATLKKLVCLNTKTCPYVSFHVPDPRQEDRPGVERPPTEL
The experiment in a line: Inhibition of ovine COX1 using arachidonic acid substrate incubated for 5 mins by colorimetry.

Regarding `COc1ccc2[nH]cc(/C=C/C(=O)c3ccc(S(C)(=O)=O)cc3)c2c1`, the IC50 was 32.3 µg/mL (≈ 90.9 µM) in test [1] and 24.2 µM in test [8]. Besides, the Activity was 60.9 U/L with Rattus norvegicus [2]; 93.8 U/L with Rattus norvegicus [3]; 1 mg/L with Rattus norvegicus [4]; 0.6 U/L with Rattus norvegicus [5]; 25.6 µmol/L in the test on Rattus norvegicus [6]; 2.6 nmol/mL with Rattus norvegicus [7].
For the compound `CS(=O)(=O)c1ccc(C(=O)/C=C/c2c[nH]c3ccc(Cl)cc23)cc1`, the IC50 in test [1] was 21 µg/mL (≈ 58.4 µM); in test [8], more than 27.8 µM.
Turning to `Cn1cc(/C=C/C(=O)c2ccc(C#N)cc2)c2ccccc21`, the IC50 in test [1] is 210 µg/mL (≈ 733 µM); in test [8], 33.9 µM.
Consider `CS(=O)(=O)c1ccc(C(=O)/C=C/c2c[nH]c3ccc(Br)cc23)cc1`, for which the IC50 in test [1] was 17.3 µg/mL (≈ 42.8 µM); in test [8], more than 24.7 µM.
Turning to `COc1ccc2c(c1)c(CC(=O)O)c(C)n2C(=O)c1ccc(Cl)cc1` [INDOMETHACIN], the Activity stood at 67.6 U/L in the test on Rattus norvegicus [2]; 92.5 U/L in the test on Rattus norvegicus [3]; 1.1 mg/L in the test with Rattus norvegicus [4]; 0.6 U/L in the test on Rattus norvegicus [5]; 26.2 µmol/L with Rattus norvegicus [6]; 2.7 nmol/mL in the test on Rattus norvegicus [7].
In the case of `Cn1cc(/C=C/C(=O)c2ccc(S(C)(=O)=O)cc2)c2ccccc21`, the figures for the concentration for half-maximal inhibition (IC50) in test [1] and in test [8] were 350 µg/mL (≈ 1030 µM) and more than 29.5 µM, respectively.
For `N#Cc1ccc(C(=O)/C=C/c2c[nH]c3ccc(Cl)cc23)cc1` the same measures were 33.3 µg/mL (≈ 109 µM) and more than 32.6 µM.
For `CC(=O)Nc1ccc(C(=O)/C=C/c2cn(C)c3ccccc23)cc1`, the IC50 in test [1] is 96.6 µg/mL (≈ 303 µM); in test [8] it was more than 31.4 µM.
Take `N#Cc1ccc(C(=O)/C=C/c2c[nH]c3ccc(Br)cc23)cc1`: the IC50 was 51.6 µg/mL (≈ 147 µM) in test [1] and 23.1 µM in test [8]. Moreover, the Activity is 62.4 U/L in the test on Rattus norvegicus [2]; 98.8 U/L in the test with Rattus norvegicus [3]; 0.6 mg/L with Rattus norvegicus [4]; 0.8 U/L in the test with Rattus norvegicus [5]; 26.2 µmol/L in the test on Rattus norvegicus [6]; 2.5 nmol/mL with Rattus norvegicus [7].
`COc1ccc2[nH]cc(/C=C/C(=O)c3ccc(C#N)cc3)c2c1`: the figures for the IC50 in test [1] and in test [8] were 20 µg/mL (≈ 66.2 µM) and more than 33.1 µM, respectively.

For orientation: IC50 means the concentration at which inhibition is half-maximal.
